Assay results as given in patent US10738028B2, “Spiro three-membered ring, spiro five-membered ring peptide deformylase inhibitor and use thereof in antibacteria and anti-tumor” (priority 2016, dated 2020).

What was measured:
Format in all cases: cell-based
[1] = system: HCT-116 colorectal cancer cell line; test: CCK-8 proliferation inhibition; conditions: Homo sapiens, HCT-116, 72 h, concentration of 30 μM; 72 hours; CCK-8; read-out: HCT116 inhibition rate/%
Summary of the method: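 HCT-116 cells, seeded at 2000 cells/well in McCoy's 5A with 10% newborn bovine serum, were cultured overnight at 37° C., 5% CO2, then exposed to compound dilutions in medium for 72 hours. Viability was read with 1:10 diluted CCK-8; controls received 1‰ DMSO.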

[2] = system: Enterococcus faecalis (EFA); test: MIC, two-fold agar dilution (CLSI), clinical isolates
Summary of the method: (§1)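 Test samples were assayed by the CLSI-recommended two-fold agar dilution method, and the minimum inhibitory concentration against each tested strain was determined.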

[3] = system: Escherichia coli (including ESBLs, non-ESBLs); test: as above
Summary of the method: as §1

[4] = system: methicillin-sensitive Staphylococcus aureus (MSSA); test: as above
Summary of the method: as §1

[5] = system: methicillin-resistant Staphylococcus epidermidis (MRSE); test: as above
Summary of the method: as §1

[6] = system: Moraxella catarrhalis (BCA); test: as above
Summary of the method: as §1

[7] = system: methicillin-resistant Staphylococcus aureus (MRSA); test: as above
Summary of the method: as §1

[8] = system: Enterococcus faecium (EFM); test: as above
Summary of the method: as §1

[9] = system: Streptococcus pneoumoniae (SPN); test: as above
Summary of the method: as §1

[10] = system: methicillin-sensitive Staphylococcus epidermidis (MSSE); test: as above
Summary of the method: as §1

## CCCC[C@H](CC(=O)NO)C(=O)N1CC2(CC2)C[C@H]1c1nc2ccccc2n1CCN(C)C [Example 60, (R)-3-((S)-6-(1-(2-(dimethylamino)ethyl)-1H-benzimidazol-2-yl)-5-azaspiro[2.4]heptane-5-carbonyl)-N-hydroxyheptanamide]
[1]
  inhibition at 30 µM: -2%
[2]; clinical isolate EFA 15-1
  Anti-bacterial activity (MIC), strain EFA 15-1: > 32 µg/mL
[2]; clinical isolate EFA 15-2
  Anti-bacterial activity (MIC), strain EFA 15-2: > 32 µg/mL
[2]; clinical isolate EFA 15-3
  Anti-bacterial activity (MIC), strain EFA 15-3: > 32 µg/mL
[2]; clinical isolate EFA 15-4
  Anti-bacterial activity (MIC), strain EFA 15-4: > 32 µg/mL
[2]; clinical isolate EFA 15-5
  Anti-bacterial activity (MIC), strain EFA 15-5: > 32 µg/mL
[2]; clinical isolate EFA 15-6
  Anti-bacterial activity (MIC), strain EFA 15-6: > 32 µg/mL
[2]; clinical isolate EFA 15-9
  Anti-bacterial activity (MIC), strain EFA 15-9: > 32 µg/mL
[3]; clinical isolate ECO+ 15-1
  Anti-bacterial activity (MIC), strain ECO+ 15-1: > 32 µg/mL
[3]; clinical isolate ECO+ 15-2
  Anti-bacterial activity (MIC), strain ECO+ 15-2: > 32 µg/mL
[3]; clinical isolate ECO+ 15-3
  Anti-bacterial activity (MIC), strain ECO+ 15-3: > 32 µg/mL
[3]; clinical isolate ECO+ 15-4
  Anti-bacterial activity (MIC), strain ECO+ 15-4: > 32 µg/mL
[3]; clinical isolate ECO− 15-1
  Anti-bacterial activity (MIC), strain ECO− 15-1: > 32 µg/mL
[3]; clinical isolate ECO− 15-2
  Anti-bacterial activity (MIC), strain ECO− 15-2: > 32 µg/mL
[3]; clinical isolate ECO− 15-3
  Anti-bacterial activity (MIC), strain ECO− 15-3: > 32 µg/mL
[3]; clinical isolate ECO− 15-4
  Anti-bacterial activity (MIC), strain ECO− 15-4: > 32 µg/mL
[4]; clinical isolate MSSA 15-3
  Anti-bacterial activity (MIC), strain MSSA 15-3: > 32 µg/mL
[4]; clinical isolate MSSA 15-4
  Anti-bacterial activity (MIC), strain MSSA 15-4: > 32 µg/mL
[4]; clinical isolate MSSA 15-5
  Anti-bacterial activity (MIC), strain MSSA 15-5: > 32 µg/mL
[4]; clinical isolate MSSA 15-6
  Anti-bacterial activity (MIC), strain MSSA 15-6: > 32 µg/mL
[5]; clinical isolate MRSE 15-1
  Anti-bacterial activity (MIC), strain MRSE 15-1: > 32 µg/mL
[5]; clinical isolate MRSE 15-2
  Anti-bacterial activity (MIC), strain MRSE 15-2: > 32 µg/mL
[5]; clinical isolate MRSE 15-3
  Anti-bacterial activity (MIC), strain MRSE 15-3: > 32 µg/mL
[5]; clinical isolate MRSE 15-7
  Anti-bacterial activity (MIC), strain MRSE 15-7: > 32 µg/mL
[6]; clinical isolate BCA 14-1
  Anti-bacterial activity (MIC), strain BCA 14-1: > 32 µg/mL
[6]; clinical isolate BCA 14-4
  Anti-bacterial activity (MIC), strain BCA 14-4: > 32 µg/mL
[6]; clinical isolate BCA 14-5
  Anti-bacterial activity (MIC), strain BCA 14-5: > 32 µg/mL
[6]; clinical isolate BCA 14-6
  Anti-bacterial activity (MIC), strain BCA 14-6: > 32 µg/mL
[6]; clinical isolate BCA 14-7
  Anti-bacterial activity (MIC), strain BCA 14-7: > 32 µg/mL
[6]; clinical isolate BCA 14-8
  Anti-bacterial activity (MIC), strain BCA 14-8: > 32 µg/mL
[6]; clinical isolate BCA 14-10
  Anti-bacterial activity (MIC), strain BCA 14-10: > 32 µg/mL
[7]; clinical isolate MRSA 15-1
  Anti-bacterial activity (MIC), strain MRSA 15-1: > 32 µg/mL
[7]; clinical isolate MRSA 15-2
  Anti-bacterial activity (MIC), strain MRSA 15-2: > 32 µg/mL
[7]; clinical isolate MRSA 15-3
  Anti-bacterial activity (MIC), strain MRSA 15-3: > 32 µg/mL
[7]; clinical isolate MRSA 15-4
  Anti-bacterial activity (MIC), strain MRSA 15-4: > 32 µg/mL
[8]; clinical isolate EFM 15-1
  Anti-bacterial activity (MIC), strain EFM 15-1: > 32 µg/mL
[8]; clinical isolate EFM 15-2
  Anti-bacterial activity (MIC), strain EFM 15-2: > 32 µg/mL
[8]; clinical isolate EFM 15-3
  Anti-bacterial activity (MIC), strain EFM 15-3: > 32 µg/mL
[8]; clinical isolate EFM 15-4
  Anti-bacterial activity (MIC), strain EFM 15-4: > 32 µg/mL
[8]; clinical isolate EFM 15-5
  Anti-bacterial activity (MIC), strain EFM 15-5: 8 µg/mL
[8]; clinical isolate EFM 15-6
  Anti-bacterial activity (MIC), strain EFM 15-6: 32 µg/mL
[9]; clinical isolate SPN 16-2
  Anti-bacterial activity (MIC), strain SPN 16-2: 1 µg/mL
[9]; clinical isolate SPN 16-4
  Anti-bacterial activity (MIC), strain SPN 16-4: 1 µg/mL
[10]; clinical isolate MSSE 15-3
  Anti-bacterial activity (MIC), strain MSSE 15-3: > 32 µg/mL
[10]; clinical isolate MSSE 15-4
  Anti-bacterial activity (MIC), strain MSSE 15-4: > 32 µg/mL
[10]; clinical isolate MSSE 15-5
  Anti-bacterial activity (MIC), strain MSSE 15-5: > 32 µg/mL
[10]; clinical isolate MSSE 15-6
  Anti-bacterial activity (MIC), strain MSSE 15-6: > 32 µg/mL
